Data published in patent US20250090540A1, “PI3K-ALPHA INHIBITORS AND METHODS OF USE THEREOF” (Relay Therapeutics, Inc., priority 2021, published 2025).

Experiments:
H1047R PIK3CA enzyme = H1047R PIK3CA enzyme (Homo sapiens, UniProt P42336, H1047R); assay: ADP-Glo Biochemical PIK3CA Kinase Assay
cells = conditions: Homo sapiens, MCF-10A, read-out: MCF10A I50

Sequence of H1047R PIK3CA enzyme (P42336 whole entry H1047R): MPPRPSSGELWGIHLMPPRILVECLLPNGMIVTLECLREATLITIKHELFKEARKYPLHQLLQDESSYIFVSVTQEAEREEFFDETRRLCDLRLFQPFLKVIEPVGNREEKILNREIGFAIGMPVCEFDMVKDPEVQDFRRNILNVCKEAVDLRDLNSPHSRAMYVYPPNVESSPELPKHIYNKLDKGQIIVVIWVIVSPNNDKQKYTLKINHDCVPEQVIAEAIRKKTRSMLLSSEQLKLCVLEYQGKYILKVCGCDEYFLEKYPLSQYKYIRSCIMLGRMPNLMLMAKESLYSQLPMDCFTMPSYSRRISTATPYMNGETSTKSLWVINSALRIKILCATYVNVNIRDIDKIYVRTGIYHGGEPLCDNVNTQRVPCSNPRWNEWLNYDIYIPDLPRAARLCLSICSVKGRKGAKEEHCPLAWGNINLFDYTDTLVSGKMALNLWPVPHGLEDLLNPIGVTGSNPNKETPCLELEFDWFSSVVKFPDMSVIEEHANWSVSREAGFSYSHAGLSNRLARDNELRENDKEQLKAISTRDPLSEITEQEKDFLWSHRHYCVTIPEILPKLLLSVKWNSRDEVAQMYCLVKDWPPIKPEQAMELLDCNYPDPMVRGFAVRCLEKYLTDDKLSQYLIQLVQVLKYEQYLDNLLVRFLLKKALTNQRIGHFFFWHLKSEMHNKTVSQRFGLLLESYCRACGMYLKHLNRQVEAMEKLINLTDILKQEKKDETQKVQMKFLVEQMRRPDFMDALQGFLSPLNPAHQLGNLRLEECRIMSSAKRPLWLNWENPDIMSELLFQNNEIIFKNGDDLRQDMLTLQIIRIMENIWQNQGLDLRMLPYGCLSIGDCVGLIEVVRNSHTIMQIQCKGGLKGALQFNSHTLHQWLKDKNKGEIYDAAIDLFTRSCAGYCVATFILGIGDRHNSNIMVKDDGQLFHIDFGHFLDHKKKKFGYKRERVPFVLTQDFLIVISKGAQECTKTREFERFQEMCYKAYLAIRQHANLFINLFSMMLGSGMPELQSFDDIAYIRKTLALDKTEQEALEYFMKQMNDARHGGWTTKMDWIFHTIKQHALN
Sequence of H1047R PIK3CA enzyme (P27986 whole entry partner): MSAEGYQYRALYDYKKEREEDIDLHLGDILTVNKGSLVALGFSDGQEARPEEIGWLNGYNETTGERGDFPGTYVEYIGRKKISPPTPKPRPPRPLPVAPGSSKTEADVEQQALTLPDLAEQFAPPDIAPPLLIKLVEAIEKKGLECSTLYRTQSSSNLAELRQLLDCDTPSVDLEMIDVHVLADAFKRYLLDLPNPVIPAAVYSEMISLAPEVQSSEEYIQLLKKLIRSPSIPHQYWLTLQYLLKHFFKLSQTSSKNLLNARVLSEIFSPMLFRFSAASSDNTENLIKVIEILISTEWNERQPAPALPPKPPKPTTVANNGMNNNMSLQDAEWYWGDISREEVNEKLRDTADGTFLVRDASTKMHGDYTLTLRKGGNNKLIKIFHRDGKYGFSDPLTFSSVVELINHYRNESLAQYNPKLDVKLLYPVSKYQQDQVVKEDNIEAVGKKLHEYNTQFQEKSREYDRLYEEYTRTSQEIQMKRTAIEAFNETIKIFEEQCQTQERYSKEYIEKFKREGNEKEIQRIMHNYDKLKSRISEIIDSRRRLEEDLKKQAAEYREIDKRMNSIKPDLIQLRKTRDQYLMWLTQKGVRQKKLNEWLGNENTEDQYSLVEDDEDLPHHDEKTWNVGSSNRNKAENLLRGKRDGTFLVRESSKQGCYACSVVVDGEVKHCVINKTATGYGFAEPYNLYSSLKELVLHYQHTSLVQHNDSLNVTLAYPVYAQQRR

SMILES | IC50 (H1047R PIK3CA enzyme) | IC50 (cells)
CNC(=O)c1ccc(-c2cnc(Nc3ccccc3C)c(NC(=O)c3cc(F)cc(C(F)(F)F)c3)c2)cc1 [I-84] | 1 to 10 µM | 5 to 10 µM
Cc1ccccc1Nc1ncc(-c2cnn(C)c2)cc1NC(=O)c1csc2ccccc12 [I-93] | 0.1 to 0.5 µM | 5 to 10 µM
Cc1ccccc1Nc1ncc(C(=O)NCc2ccnn2C)cc1NC(=O)c1csc2ccccc12 [I-135] | 0.1 to 0.5 µM | 1 to 5 µM
Cc1ccccc1Nc1ncc(C(=O)NC2CS(=O)(=O)C2)cc1NC(=O)c1csc2ccccc12 [I-136] | ≤ 0.1 µM | 1 to 5 µM
Cc1ccccc1Nc1ncc(C(=O)NCC2CS(=O)(=O)C2)cc1NC(=O)c1csc2ccccc12 [I-137] | 0.1 to 0.5 µM | 5 to 10 µM
Cc1ccccc1Nc1ncc(C(=O)NCc2nccs2)cc1NC(=O)c1csc2ccccc12 [I-138] | ≤ 0.1 µM | 5 to 10 µM
CNC(=O)c1cnc(Nc2ccccc2C)c(NC(=O)c2nsc3ccccc23)c1 [I-139] | 0.5 to 1 µM | 10 to 36 µM
Cc1ccccc1Nc1ncc(-c2cnn(C)c2)cc1NC(=O)c1csc2ccc(F)cc12 [I-146] | 0.1 to 0.5 µM | 1 to 5 µM
CNC(=O)c1cnc(Nc2ccccc2C)c(NC(=O)c2csc3ccc(Cl)cc23)c1 [I-149] | 0.1 to 0.5 µM | 10 to 36 µM
CNC(=O)c1cnc(Nc2ccccc2C)c(NC(=O)c2csc3ccc(F)cc23)c1 [I-150] | 0.1 to 0.5 µM | 5 to 10 µM
Cc1ccccc1Nc1ncc(C(=O)NCc2ccn(C)n2)cc1NC(=O)c1cc(F)cc(C(F)(F)F)c1 [I-178] | 0.1 to 0.5 µM | 1 to 5 µM
O=C(NC1CS(=O)(=O)C1)c1cnc(N2CCCc3ccccc32)c(NC(=O)c2csc3ccccc23)c1 [I-180] | 0.1 to 0.5 µM | 10 to 36 µM
O=C(NCc1nccs1)c1cnc(N2CCCc3ccccc32)c(NC(=O)c2csc3ccccc23)c1 [I-181] | 0.1 to 0.5 µM | 10 to 36 µM
COCCNC(=O)c1cnc(Nc2ccccc2C)c(NC(=O)c2csc3ccccc23)c1 [I-190] | 0.1 to 0.5 µM | 10 to 36 µM
Cc1ccccc1Nc1ncc(C(=O)NCc2ccc(Cl)cc2)cc1NC(=O)c1csc2ccccc12 [I-191] | 0.1 to 0.5 µM | 1 to 5 µM
Cc1ccccc1Nc1ncc(C(=O)NC2COC2)cc1NC(=O)c1csc2ccccc12 [I-192] | 0.1 to 0.5 µM | 36 to 100 µM
Cc1ccccc1Nc1ncc(C(=O)NCc2cccnc2)cc1NC(=O)c1csc2ccccc12 [I-193] | 0.1 to 0.5 µM | 5 to 10 µM

SMILES | IC50 (H1047R PIK3CA enzyme) | IC50 (cells)
Cc1ccccc1Nc1ncc(C(=O)NCC2CCCO2)cc1NC(=O)c1csc2ccccc12 (stereo not drawn) [I-195] | 0.1 to 0.5 µM | 10 to 36 µM
Cc1ccccc1Nc1ncc(C(=O)NCC(F)(F)F)cc1NC(=O)c1csc2ccccc12 [I-196] | 0.1 to 0.5 µM | 5 to 10 µM
Cc1ccccc1Nc1ncc(C(=O)NC(C)c2ccccc2)cc1NC(=O)c1csc2ccccc12 (stereo not drawn) [I-197] | ≤ 0.1 µM | 10 to 36 µM
Cc1ccccc1Nc1ncc(C(=O)NCC2CCOCC2)cc1NC(=O)c1csc2ccccc12 [I-198] | 0.1 to 0.5 µM | 10 to 36 µM
COc1cncc(CNC(=O)c2cnc(Nc3ccccc3C)c(NC(=O)c3csc4ccccc34)c2)c1 [I-199] | 0.1 to 0.5 µM | 10 to 36 µM
O=C(Nc1cc(C(=O)NC2CS(=O)(=O)C2)cnc1N1CCCc2ccccc21)c1cc(F)cc(C(F)(F)F)c1 [I-208] | 0.5 to 1 µM | 5 to 10 µM
O=C(NCc1nccs1)c1cnc(N2CCCc3ccccc32)c(NC(=O)c2cc(F)cc(C(F)(F)F)c2)c1 [I-209] | 0.5 to 1 µM | 10 to 36 µM
Cn1nccc1CNC(=O)c1cnc(N2CCCc3ccccc32)c(NC(=O)c2cc(F)cc(C(F)(F)F)c2)c1 [I-210] | 1 to 10 µM | 36 to 100 µM
Cc1ccccc1Nc1ncc(C(=O)NCC2CC(F)(F)C2)cc1NC(=O)c1cc(F)cc(C(F)(F)F)c1 [I-211] | 0.1 to 0.5 µM | 1 to 5 µM
Cc1ccccc1Nc1ncc(C(=O)NC2CC(F)(F)C2)cc1NC(=O)c1cc(F)cc(C(F)(F)F)c1 [I-212] | 0.1 to 0.5 µM | 1 to 5 µM
CNC(=O)c1cnc(N2C(=O)NCc3ccccc32)c(NC(=O)c2csc3ccccc23)c1 [I-215] | 1 to 10 µM | 36 to 100 µM
Cc1ccccc1Nc1ncc(C(=O)NCCS(C)(=O)=O)cc1NC(=O)c1cc(F)cc(C(F)(F)F)c1 [I-219] | 0.1 to 0.5 µM | 1 to 5 µM
Cc1cc(NC(=O)c2cnc(Nc3ccccc3C)c(NC(=O)c3cc(F)cc(C(F)(F)F)c3)c2)n[nH]1 [I-232] | 0.1 to 0.5 µM | 1 to 5 µM
Cc1ccccc1Nc1ncc(C(=O)Nc2ccncc2)cc1NC(=O)c1cc(F)cc(C(F)(F)F)c1 [I-234] | 0.1 to 0.5 µM | < 1 µM
Cc1ccccc1Nc1ncc(C(=O)Nc2cccnc2)cc1NC(=O)c1cc(F)cc(C(F)(F)F)c1 [I-239] | 0.1 to 0.5 µM | 1 to 5 µM
Cc1ccccc1Nc1ncc(C(=O)Nc2ccnnc2)cc1NC(=O)c1cc(F)cc(C(F)(F)F)c1 [I-240] | 0.1 to 0.5 µM | < 1 µM
